Measured values published in patent US12503444B2, “Compound containing benzene ring and application thereof” (WUHAN LL SCIENCE AND TECHNOLOGY DEVELOPMENT CO., LTD., priority 2019, dated 2025).

Molecular target: T1, hP2X4 (human purinergic P2X receptor subtype 4) (Homo sapiens, UniProt Q99571)
T1 sequence (Q99571 1-404 isoform Q99571-2): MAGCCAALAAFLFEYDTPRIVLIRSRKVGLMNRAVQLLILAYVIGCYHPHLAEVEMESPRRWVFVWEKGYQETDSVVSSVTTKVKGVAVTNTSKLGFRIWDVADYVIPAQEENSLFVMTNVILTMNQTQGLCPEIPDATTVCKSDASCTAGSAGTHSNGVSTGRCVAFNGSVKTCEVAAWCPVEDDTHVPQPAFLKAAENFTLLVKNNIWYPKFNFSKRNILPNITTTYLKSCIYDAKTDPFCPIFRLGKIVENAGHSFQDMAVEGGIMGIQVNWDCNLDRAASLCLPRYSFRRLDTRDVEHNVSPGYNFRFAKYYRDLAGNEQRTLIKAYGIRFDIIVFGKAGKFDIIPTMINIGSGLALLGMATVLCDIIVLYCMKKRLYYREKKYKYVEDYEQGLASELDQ
Experiment: FLIPR assay of intracellular calcium increase induced by activation of hP2X4 expressed in HEK293 cells (agonist BZ-ATP 2.5 μM)
Type: cell-based
Conditions: HEK293 cells stably expressing hP2X4, FLIPR, class symbols, read-out: P2X4 IC50
Protocol: The antagonist property of the compounds disclosed herein was determined using the FLIPR (fluorescence imaging plate reader) method, wherein the compounds are inhibitors for the intracellular calcium increase induced by activation of hP2X4 (human purinergic P2X receptor subtype 4, accession No. NM_001256796.2) expressed in HEK293 cells (human renal epithelial cell line, ATCC).
HEK293 cells stably expressing hP2X4 were cultured in DMEM high glucose medium containing 10% FBS (fetal bovine serum, Biosera, FB-1058/500), 1% penicillin-streptomycin (Gibco, 15140-122) and 1 mg/mL G418 (CABIOCHE, 345810) in a cell incubator (37° C., […]). Cells at 400,000 cells/mL were seeded into a 384-well plate (10,000 cells/well) 18-24 h prior to the FLIPR experiment and then incubated overnight in a cell incubator. On the day of the experiment, the medium was discarded and the cells were washed in an FLIPR buffer (0.3 mL of probenecid (Thermo, P36400), 0.6 mL of 1 M HEPES (Invitrogen, 15630080) and 29.1 mL of HBSS (Invitrogen, 14065056) per 30 mL of the buffer). Each well was added with 20 μL of 0.5× Calcium 6 fluorescent dye (Molecular Devices, R8190) and then the cells were subjected to dye-loading incubation at 37° C. for 1.5 h. Each well was added with 10 μL of respective test compound (dissolved in DMSO at a concentration of 10 mM and serially diluted with buffer) or vehicle and the mixture was equilibrated for 30 min at room temperature. The cell plate was then placed in the FLIPR for baseline fluorescence measurements (excitation at 485 nm and emission at 525-535 nm). An agonist (BZ-ATP (Sigma, B6396) at a final concentration of 2.5 μM) or a vehicle (ultrapure water) was then added at 10 μL/well, fluorescence values were measured for 2 min at 1-second intervals, and finally the output fluorescence counts were analyzed.

Row | Compound | IC50
1 | CC(c1ccc(F)cc1)n1cc2c(S(N)(=O)=O)cc(NC(=O)Cc3ccccc3Cl)cc2n1 (stereo not drawn) [Compound 40-A, 2-(2-chlorophenyl)-N-(2-(1-(4-fluorophenyl)ethyl)-4-sulfamoyl-2H-indazol-6-yl)acetamide] | 10 to 50 nM
2 | CC(c1ccc(F)cc1)n1ncc2c(S(N)(=O)=O)cc(NC(=O)Cc3ccccc3Cl)cc21 (stereo not drawn) [Compound 40-B, 2-(2-chlorophenyl)-N-(1-(1-(4-fluorophenyl)ethyl)-4-sulfamoyl-1H-indazol-6-yl)acetamide] | ≤ 10 nM
3 | CC(C)C(=O)n1cc2c(S(N)(=O)=O)cc(NC(=O)Cc3ccccc3Cl)cc2n1 [Compound 41, 2-(2-chlorophenyl)-N-(2-isobutyryl-4-sulfamoyl-2H-indazol-6-yl)acetamide] | 10 to 50 nM
4 | NS(=O)(=O)c1cc(NC(=O)Cc2ccccc2Cl)cc2nn(C(=O)c3ccc(F)cc3)cc12 [Compound 42-A, 2-(2-chlorophenyl)-N-(2-(4-fluorobenzoyl)-4-sulfamoyl-2H-indazol-6-yl)acetamide] | 10 to 50 nM
5 | NS(=O)(=O)c1cc(NC(=O)Cc2ccccc2Cl)cc2c1cnn2C(=O)c1ccc(F)cc1 [Compound 42-B, 2-(2-chlorophenyl)-N-(1-(4-fluorobenzoyl)-4-sulfamoyl-1H-indazol-6-yl)acetamide] | 200 to 5000 nM
6 | NS(=O)(=O)c1cc(NC(=O)Cc2ccccc2Cl)cc2c1cnn2C(F)F [Compound 43, 2-(2-chlorophenyl)-N-(1-(difluoromethyl)-4-sulfamoyl-1H-indazol-6-yl)acetamide] | 10 to 50 nM
7 | NS(=O)(=O)c1cc(NC(=O)Cc2ccccc2Cl)cc2c1cnn2-c1ccc(Cl)cc1 [Compound 45, 2-(2-chlorophenyl)-N-(1-(4-chlorophenyl)-4-sulfamoyl-1H-indazol-6-yl)acetamide] | 10 to 50 nM
8 | NS(=O)(=O)c1cc(NC(=O)Cc2ccccc2Cl)cc2cn(CCO)nc12 [Compound 48-A, 2-(2-chlorophenyl)-N-(2-(2-hydroxyethyl)-7-sulfamoyl-2H-indazol-5-yl)acetamide] | 200 to 5000 nM
9 | NS(=O)(=O)c1cc(NC(=O)Cc2ccccc2Cl)cc2cnn(C(F)F)c12 [Compound 50, 2-(2-chlorophenyl)-N-(1-(difluoromethyl)-7-sulfamoyl-1H-indazol-5-yl)acetamide] | 50 to 200 nM
10 | NS(=O)(=O)c1cc(NC(=O)Cc2ccccc2Cl)cc2nc(C3CC3)[nH]c12 [Compound 52, 2-(2-chlorophenyl)-N-(2-cyclopropyl-7-sulfamoyl-1H-benzo[d]imidazol-5-yl)acetamide] | 200 to 5000 nM
11 | NS(=O)(=O)c1cc(NC(=O)Cc2ccccc2Cl)cc2c1ncn2-c1ccc(Cl)cc1 [Compound 55, 2-(2-chlorophenyl)-N-(1-(4-chlorophenyl)-4-sulfamoyl-1H-benzo[d]imidazol-6-yl)acetamide] | 10 to 50 nM
12 | CC(C)C(=O)n1ncc2c(S(N)(=O)=O)cc(NC(=O)Cc3ccccc3Cl)cc21 [Compound 58, 2-(2-chlorophenyl)-N-(1-isobutyryl-4-sulfamoyl-1H-indazol-6-yl)acetamide] | 200 to 5000 nM
13 | COc1ccc(Cn2cc3c(S(N)(=O)=O)cc(NC(=O)Cc4ccccc4Cl)cc3n2)c(Cl)c1 [Compound 86] | ≤ 10 nM
14 | COc1ccc(Cn2cc3c(S(N)(=O)=O)cc(NC(=O)Cc4ccccc4Cl)cc3n2)c(Br)c1 [Compound 87] | ≤ 10 nM
15 | NS(=O)(=O)c1cc(NC(=O)Cc2ccccc2Cl)cc2c1cnn2Cc1ccc(Cl)cc1 [Compound 89A, N-(1-(4-chlorobenzyl)-4-sulfamoyl-1H-indazol-6-yl)-2-(2-chlorophenyl)acetamide] | ≤ 10 nM
16 | NS(=O)(=O)c1cc(NC(=O)Cc2ccccc2Cl)cc2nn(Cc3ccc(C(F)(F)F)cc3)cc12 [Compound 90, 2-(2-chlorophenyl)-N-(4-sulfamoyl-2-(4-(trifluoromethyl)benzyl)-2H-indazol-6-yl)acetamide] | ≤ 10 nM
17 | Cc1ccc(Cn2cc3c(S(N)(=O)=O)cc(NC(=O)Cc4ccccc4Cl)cc3n2)cc1 [Compound 92, 2-(2-chlorophenyl)-N-(2-(4-methylbenzyl)-4-sulfamoyl-2H-indazol-6-yl)acetamide] | ≤ 10 nM
18 | Cc1ccc(Cn2ncc3c(S(N)(=O)=O)cc(NC(=O)Cc4ccccc4Cl)cc32)cc1 [Compound 92A, 2-(2-chlorophenyl)-N-(1-(4-methylbenzyl)-4-sulfamoyl-1H-indazol-6-yl)acetamide] | ≤ 10 nM
19 | COc1ccc(Cn2cc3c(S(N)(=O)=O)cc(NC(=O)Cc4ccccc4Cl)cc3n2)nc1 [Compound 93] | ≤ 10 nM
20 | Nc1ccc(Cn2ncc3c(S(N)(=O)=O)cc(NC(=O)Cc4ccccc4Cl)cc32)cc1 [Compound 95A, N-(1-(4-aminobenzyl)-4-sulfamoyl-1H-indazol-6-yl)-2-(2-chlorophenyl)acetamide] | ≤ 10 nM
21 | NS(=O)(=O)c1cc(NC(=O)Cc2ccccc2Cl)cc2nn(CC3CCC(O)CC3)cc12 (stereo not drawn) [Compound 108] | 50 to 200 nM
22 | NS(=O)(=O)c1cc(NC(=O)Cc2ncccc2Cl)cc2nn(C(F)F)cc12 [Compound 113, 2-(3-chloropyridin-2-yl)-N-(2-(difluoromethyl)-4-sulfamoyl-2H-indazol-6-yl)acetamide] | 200 to 5000 nM
23 | COc1ccccc1CC(=O)Nc1cc(S(N)(=O)=O)c2cn(C(F)F)nc2c1 [Compound 115, N-(2-(difluoromethyl)-4-sulfamoyl-2H-indazol-6-yl)-2-(2-methoxyphenyl)acetamide] | 200 to 5000 nM

Continued, values first:

Row | IC50 | Compound
24 | 10 to 50 nM | CN(C)c1cccc(Cn2ncc3c(S(N)(=O)=O)cc(NC(=O)Cc4ccccc4Cl)cc32)c1 [Compound 46, 2-(2-chlorophenyl)-N-(1-(3-(dimethylamino)benzyl)-4-sulfamoyl-1H-indazol-6-yl)acetamide]
25 | 200 to 5000 nM | NS(=O)(=O)c1cc(NC(=O)Cc2ccccc2Cl)cc2cnn(CCO)c12 [Compound 48-B, 2-(2-chlorophenyl)-N-(1-(2-hydroxyethyl)-7-sulfamoyl-1H-indazol-5-yl)acetamide]
26 | 200 to 5000 nM | NS(=O)(=O)c1cc(NC(=O)Cc2ccccc2Cl)cc2nc(-c3ccc(Cl)cc3)[nH]c12 [Compound 54, 2-(2-chlorophenyl)-N-(2-(4-chlorophenyl)-7-sulfamoyl-1H-benzo[d]imidazol-5-yl)acetamide]
27 | 10 to 50 nM | NS(=O)(=O)c1cc(NC(=O)Cc2ccccc2Cl)cc2[nH]ccc12 [Compound 56, 2-(2-chlorophenyl)-N-(4-sulfamoyl-1H-indol-6-yl)acetamide]
28 | 200 to 5000 nM | NS(=O)(=O)c1cc(NC(=O)Cc2ccccc2Cl)cc2nn(C3COC3)cc12 [Compound 59, 2-(2-chlorophenyl)-N-(2-(oxetan-3-yl)-4-sulfamoyl-2H-indazol-6-yl)acetamide]
29 | 200 to 5000 nM | NS(=O)(=O)c1cc(NC(=O)Cc2ccccc2Cl)cc2c1c(Cl)nn2-c1ccc(F)cc1 [Compound 75, N-(3-chloro-1-(4-fluorophenyl)-4-sulfamoyl-1H-indazol-6-yl)-2-(2-chlorophenyl)acetamide]
30 | ≤ 10 nM | COc1ccc(Cn2cc3c(S(N)(=O)=O)cc(NC(=O)Cc4ccccc4Cl)cc3n2)cc1F [Compound 82]
31 | ≤ 10 nM | COc1ccc(Cn2ncc3c(S(N)(=O)=O)cc(NC(=O)Cc4ccccc4Cl)cc32)c(F)c1 [Compound 83, 2-(2-chlorophenyl)-N-(1-(2-fluoro-4-methoxybenzyl)-4-sulfamoyl-1H-indazol-6-yl)acetamide]
32 | ≤ 10 nM | COc1ccc(Cn2cc3c(S(N)(=O)=O)cc(NC(=O)Cc4ccccc4Cl)cc3n2)c(F)c1 [Compound 85]
33 | ≤ 10 nM | COc1ccc(Cn2cc3c(S(N)(=O)=O)cc(NC(=O)Cc4ccccc4Cl)cc3n2)cn1 [Compound 94]
34 | ≤ 10 nM | Nc1ccc(Cn2cc3c(S(N)(=O)=O)cc(NC(=O)Cc4ccccc4Cl)cc3n2)cc1 [Compound 95, N-(2-(4-aminobenzyl)-4-sulfamoyl-2H-indazol-6-yl)-2-(2-chlorophenyl)acetamide]

Same assay, conditions: HEK293 cells stably expressing hP2X4, FLIPR, numeric values, read-out: P2X4 IC50

Row | IC50 | Compound
35 | 89.5 nM | NS(=O)(=O)c1cc(NC(=O)Cc2ccccc2Cl)cc2cn(C(F)F)nc12 [Compound 49, 2-(2-chlorophenyl)-N-(2-(difluoromethyl)-7-sulfamoyl-2H-indazol-5-yl)acetamide]
36 | 934 nM | N#Cc1nc2c(S(N)(=O)=O)cc(NC(=O)Cc3ccccc3Cl)cc2[nH]1 [Compound 51, 6-(2-chlorophenylacetamide)-2-nitrile-4-sulfonamide benzimidazole]
